The text below walks through data of patent US20140193843A1 (Institut Pasteur, priority 2008, published 2014).

No end group written: not given here.

In test [1] the test system is anti-YQRFSR antibody 3RBF-SAB. Put plainly: Competitive ELISA immuno-assay for Opiorphin. Format: binding, rabbit. Particulars: at 500 ng/ml final concentration. On the technique in general: An ELISA detects its analyte on a solid surface through an enzyme-linked reagent.
Source text: Y represents the antibody directed against Sialorphin.
The peptide was coated on the plastic support of the micro-titration plate (96-well-ImmunoPlate, Nunc).
Inter-assay variability was less than 10%.
The test system of the next test is acute mechanical pain. Particulars: rat, pin-pain test, compared with morphine; cited from earlier work.

As to “QHNPR (Sialorphin; UniProt P13432 29-33, looked up)”, in test [1], the “recognition by the antibody (specificity of the immuno-assay)” value is listed as “not recognized”.

Turning to QRFSR [Opiorphin, QRFSR], the pain-suppressive potency result with acute mechanical pain is recorded as “as effective as morphine”.
